This note sets out measurements from patent US20120270864A1, “2-QUINOLINONE AND 2-QUINOXALINONE-DERIVATIVES AND THEIR USE AS ANTIBACTERIAL AGENTS” (ASTRAZENECA AB, priority 2006, published 2012).

SMILES strings stand for the structures.

For the first test, the system named is Staphylococcus aureus (Sau) 516 cells. The test is described as follows: Bacterial Susceptibility Testing Methods 2 (microbroth dilution, growth inhibition). The format is cell-based. To be noted: Staphylococcus aureus, Tested Concentration 4 μg/mL; Staphylococcus aureus 516 cell growth. The text has this: Compounds may be tested for antimicrobial activity by susceptibility testing using microbroth dilution methods recommended by CSLI. Compounds may be dissolved in dimethylsulfoxide and tested in 10 doubling dilutions in the susceptibility assays such that the final dimethylsulfoxide concentration in the assay is 2% (v/v). The Staphylococcus aureus (Sau) 516 cells used in the assay may be grown overnight on appropriate agar media and then suspended in the NCCLS-recommended liquid susceptibility-testing media. […] Plates may be incubated under appropriate conditions of atmosphere and temperature and for times according to NCCLS standard methods prior to being read. As used in Table 1 below, the term “inhibition” refers to the percentage of Staphylococcus aureus 516 cell growth that is suppressed (compared to an untreated sample) by the compound of the indicated example number. When tested in the above in-vitro assay, the compounds and salts of the example numbers listed below were tested at the indicated concentrations, providing the indicated inhibitions. In most instances, the highest concentrations at which the compounds were tested was 8 μg/mL. In some instances, however, compounds were tested at concentrations higher than 8 μg/mL, typically when the concentration was first measured in μM and was subsequently converted to μg/mL. In those cases in which compounds were tested at more than one concentration higher than 8 μg/mL, the concentration closest to 8 μg/mL is provided below.
`CO[C@H]1CN(CCn2c(=O)ccc3ccc(C#N)cc32)CC[C@@H]1NCc1cc2c(cn1)OCCO2` [Example 43, 1-(2-{(3S,4S)-4-[(2,3-Dihydro[1,4]dioxino[2,3-c]pyridin-7-ylmethyl)amino]-3-methoxypiperidin-1-yl}ethyl)-2-oxo-1,2-dihydroquinoline-7-carbonitrile] came in with an inhibition at 4 µg/mL of 100%.

Still in this test, the particulars now being: Staphylococcus aureus, Tested Concentration 8 μg/mL; Staphylococcus aureus 516 cell growth suppressed compared to untreated sample.
Turning to `COc1ccc2ncc(=O)n(CCN3CC[C@@H](NCc4ccc5c(n4)NC(=O)CO5)[C@@H](OC)C3)c2c1` [Example 15, 6-[({(3S,4R)-3-Methoxy-1-[2-(7-methoxy-2-oxoquinoxalin-1(2H)-yl)ethyl]piperidin-4-yl}amino)methyl]-2H-pyrido[3,2-b][1,4]oxazin-3 (4H)-one], the inhibition at 8 µg/mL was 97%.
Take `COc1ccc2ncc(=O)n(CCN3CC[C@H](NCc4cc5c(cn4)OCCO5)[C@H](OC)C3)c2c1` [Example 16, 1-(2-{(3R,4S)-4-[(2,3-Dihydro[1,4]dioxino[2,3-c]pyridin-7-ylmethyl)amino]-3-methoxypiperidin-1-yl}ethyl)-7-methoxyquinoxalin-2(1H)-one]: 8 µg/mL produced 97% inhibition.
On the same count and under the same terms, next, `COc1ccc2ncc(=O)n(CCN3CC[C@H](NCc4ccc5c(n4)NC(=O)CO5)[C@H](OC)C3)c2c1` [Example 17, 6-[({(3R,4S)-3-Methoxy-1-[2-(7-methoxy-2-oxoquinoxalin-1(2H)-yl)ethyl]piperidin-4-yl}amino)methyl]-2H-pyrido[3,2-b][1,4]oxazin-3(4H)-one]: 99%; `CO[C@H]1CN(CCn2c(=O)ccc3ccc(C#N)cc32)CC[C@H]1NCc1cc2c(cn1)OCCO2` [Example 19, 1-(2-{(3S,4R)-4-[(2,3-Dihydro[1,4]dioxino[2,3-c]pyridin-7-ylmethyl)amino]-3-methoxypiperidin-1-yl}ethyl)-2-oxo-1,2-dihydro quinoline-7-carbonitrile]: 100%.
For `CO[C@H]1CN(CCn2c(=O)ccc3ccc(C#N)cc32)CC[C@H]1NCc1ccc2c(n1)NC(=O)CO2` [Example 20, 1-[2-((3S,4R)-3-M ethoxy-4-{[(3-oxo-3,4-dihydro-2H-pyrido[3,2-b][1,4]oxazin-6-yl)methyl]amino}piperidin-1-yl)ethyl]-2-oxo-1,2-dihydro quino line-7-carbonitrile], 8 µg/mL produced 100% inhibition.
`CO[C@H]1CN(CCn2c(=O)ccc3ccc(C#N)cc32)CC[C@H]1NCc1ccc2c(n1)NC(=O)CS2` [Example 21, 1-[2-((3S,4R)-3-M ethoxy-4-{[(3-oxo-3,4-dihydro-2H-pyrido[3,2-b][1,4]thiazin-6-yl)methyl]amino}piperidin-1-yl)ethyl]-2-oxo-1,2-dihydro quino line-7-carbonitrile] displayed an inhibition at 8 µg/mL of 100%.
The compound `CO[C@@H]1CN(CCn2c(=O)ccc3ccc(C#N)cc32)CC[C@@H]1NCc1cc2c(cn1)OCCO2` [Example 22, 1-(2-{(3R,4S)-4-[(2,3-Dihydro[1,4]dioxino[2,3-c]pyridin-7-ylmethyl)amino]-3-methoxypiperidin-1-yl}ethyl)-2-oxo-1,2-dihydroquinoline-7-carbonitrile] returned an inhibition at 8 µg/mL of 100%.
Regarding `CO[C@@H]1CN(CCn2c(=O)ccc3ccc(C#N)cc32)CC[C@@H]1NCc1ccc2c(n1)NC(=O)CO2` [Example 23, 1-[2-((3R,4S)-3-M ethoxy-4-{[(3-oxo-3,4-dihydro-2H-pyrido[3,2-b][1,4]oxazin-6-yl)methyl]amino}piperidin-1-yl)ethyl]-2-oxo-1,2-dihydro quino line-7-carbonitrile], the inhibition at 8 µg/mL was 100%.
Same read-out and setting: in the case of `CO[C@@H]1CN(CCn2c(=O)ccc3ccc(C#N)cc32)CC[C@@H]1NCc1ccc2c(n1)NC(=O)CS2` [Example 24, 1-[2-((3R,4S)-3-Methoxy-4-{[(3-oxo-3,4-dihydro-2H-pyrido[3,2-b][1,4]thiazin-6-yl)methyl]amino}piperidin-1-yl)ethyl]-2-oxo-1,2-dihydro quino line-7-carbonitrile] it was 100%; in that of `COc1ccc2ncc(=O)n(CCN3CC[C@H](NCc4cc5c(cn4)OCCO5)[C@@H](OC)C3)c2c1` [Example 25, 1-(2-{(3S,4S)-4-[(2,3-Dihydro[1,4]dioxino[2,3-c]pyridin-7-ylmethyl)amino]-3-methoxypiperidin-1-yl}ethyl)-7-methoxyquinoxalin-2(1H)-one], 98%.
As for `COc1ccc2ncc(=O)n(CCN3CC[C@H](NCc4ccc5c(n4)NC(=O)CO5)[C@@H](OC)C3)c2c1` [Example 26, 6-[({(3S,4S)-3-Methoxy-1-[2-(7-methoxy-2-oxoquinoxalin-1(2H)-yl)ethyl]piperidin-4-yl}amino)methyl]-2H-pyrido[3,2-b][1,4]oxazin-3(4H)-one], 8 µg/mL produced 98% inhibition.
As to `COc1ccc2ncc(=O)n(CCN3CC[C@@H](NCc4cc5c(cn4)OCCO5)[C@H](OC)C3)c2c1` [Example 27, 1-(2-{(3R,4R)-4-[(2,3-Dihydro[1,4]dioxino[2,3-c]pyridin-7-ylmethyl)amino]-3-methoxypiperidin-1-yl}ethyl)-7-methoxyquinoxalin-2(1H)-one], the inhibition at 8 µg/mL was determined as 87%.
`COc1ccc2ncc(=O)n(CCN3CC[C@@H](NCc4ccc5c(n4)NC(=O)CO5)[C@H](OC)C3)c2c1` [Example 28, 6-[({(3R,4R)-3-Methoxy-1-[2-(7-methoxy-2-oxoquinoxalin-1(2H)-yl)ethyl]piperidin-4-yl}amino)methyl]-2H-pyrido[3,2-b][1,4]oxazin-3(4H)-one]: the inhibition at 8 µg/mL is 98%.
In turn, `CO[C@@H]1CN(CCn2c(=O)ccc3ccc(C#N)cc32)CC[C@H]1NCc1ccc2c(n1)NC(=O)CO2` [Example 42, 1-[2-((3R,4R)-3-methoxy-4-{[(3-oxo-3,4-dihydro-2H-pyrido[3,2-b][1,4]oxazin-6-yl)methyl]amino}piperidin-1-yl)ethyl]-2-oxo-1,2-dihydroquinoline-7-carbonitrile] registered an inhibition at 8 µg/mL of 100%.
`CO[C@H]1CN(CCn2c(=O)ccc3ccc(C#N)cc32)CC[C@@H]1NCc1cc2c(cn1)OCCO2` [Example 43, 1-(2-{(3S,4S)-4-[(2,3-Dihydro[1,4]dioxino[2,3-c]pyridin-7-ylmethyl)amino]-3-methoxypiperidin-1-yl}ethyl)-2-oxo-1,2-dihydroquinoline-7-carbonitrile] came in with an inhibition at 8 µg/mL of 12%.
`CO[C@H]1CN(CCn2c(=O)ccc3ccc(C#N)cc32)CC[C@@H]1NCc1ccc2c(n1)NC(=O)CO2` [Example 44, 1-[2-((3S,4S)-3-Methoxy-4-{[(3-oxo-3,4-dihydro-2H-pyrido[3,2-b][1,4]oxazin-6-yl)methyl]amino}piperidin-1-yl)ethyl]-2-oxo-1,2-dihydroquinoline-7-carbonitrile] yielded an inhibition at 8 µg/mL of 100%.
Consider `COc1ccc2ncc(=O)n(CCN3CC[C@@H](NCc4ccc5c(n4)NC(=O)CO5)[C@@H](F)C3)c2c1` [Example 45, 6-[({(3S,4R)-3-Fluoro-1-[2-(7-methoxy-2-oxoquinoxalin-1(2H)-yl)ethyl]piperidin-4-yl}amino)methyl]-2H-pyrido[3,2-b][1,4]oxazin-3(4H)-one], for which the inhibition at 8 µg/mL worked out at 97%.
Still for that read-out and setting: in the case of `COc1ccc2ncc(=O)n(CCN3CC[C@H](NCc4ccc5c(n4)NC(=O)CO5)[C@H](F)C3)c2c1` [Example 46, 6-[({(3R,4S)-3-Fluoro-1-[2-(7-methoxy-2-oxoquinoxalin-1(2H)-yl)ethyl]piperidin-4-yl}amino)methyl]-2H-pyrido[3,2-b][1,4]oxazin-3 (4H)-one] it was 100%; in that of `CO[C@@H]1CN(CCn2c(=O)cc(C)c3ccc(C#N)cc32)CC[C@@H]1NCc1ccc2c(n1)NC(=O)CO2` [Example 47, 1-[2-((3R,4S)-3-M ethoxy-4-{[(3-oxo-3,4-dihydro-2H-pyrido[3,2-b][1,4]oxazin-6-yl)methyl]amino}piperidin-1-yl)ethyl]-4-methyl-2-oxo-1,2-dihydroquinoline-7-carbonitrile], 100%.

Still in this test, the particulars now being: Staphylococcus aureus, Tested Concentration 9 μg/mL; Staphylococcus aureus 516 cell growth.
`CO[C@H]1CN(CCn2c(=O)cc(C)c3ccc(C#N)cc32)CC[C@H]1NCc1ccc2c(n1)NC(=O)CO2` [Example 51, 1-[2-((3S,4R)-3-Methoxy-4-{[(3-oxo-3,4-dihydro-2H-pyrido[3,2-b][1,4]oxazin-6-yl)methyl]amino}piperidin-1-yl)ethyl]-4-methyl-2-oxo-1,2-dihydro quino line-7-carbonitrile] registered an inhibition at 9 µg/mL of 100%.

Still in this test, the particulars now being: Staphylococcus aureus, Tested Concentration 14 μg/mL; Staphylococcus aureus 516 cell growth.
Compound `N#Cc1ccc2ccc(=O)n(CCN3CC[C@@H](NCc4ccc5c(n4)NC(=O)CO5)[C@@H](F)C3)c2c1` [Example 50, 1-[2-((3S,4R)-3-Fluoro-4-{[(3-oxo-3,4-dihydro-2H-pyrido[3,2-b][1,4]oxazin-6-yl)methyl]amino}piperidin-1-yl)ethyl]-2-oxo-1,2-dihydro quino line-7-carbonitrile] showed an inhibition at 14 µg/mL of 100%.

Staying with this test, now noted: Tested Concentration 8 μg/mL; Staphylococcus aureus 516 cell growth suppressed compared to untreated sample.
Turning to `COc1ccc2ncc(=O)n(CCN3CC[C@H](NCc4ccc5c(n4)NC(=O)CS5)[C@H](OC)C3)c2c1` [Example 18], the “Inhibition (%)” value is recorded as 95%.
Consider `CO[C@@H]1CN(CCn2c(=O)ccc3ccc(C#N)cc32)CC[C@H]1NCc1cc2c(cn1)OCCO2` [Example 41, 1-(2-{(3R,4R)-4-[(2,3-dihydro[1-yl]dioxino[2,3-c]pyridin-7-ylmethyl)amino]-3-methoxypiperidin-1-yl}ethyl)-2-oxo-1,2-dihydro quinoline-7-carbonitrile], for which the “Inhibition (%)” value came out at 100%.

The test is the same for the next values; noted with them: Tested Concentration 12 μg/mL; Staphylococcus aureus 516 cell growth.
For `N#Cc1ccc2ccc(=O)n(CCN3CCC(NCc4ccc5c(n4)NC(=O)CO5)C(F)C3)c2c1` (stereo not shown) [Example 34], the “Inhibition (%)” value came to 91%.
